From ChEMBL document CHEMBL1122587 (J Med Chem, 1984)
Numbered stars: 1 amine (or outer) side, 2 acyl side, 3 side chain; on linkers, the order of the positions; unused ones are H or OH. Bridge positions count the residues as written; N and C are the ends. Square brackets hold non-standard residues; d marks the D form. Peptide text beside a SMILES is read from it. I, II: the chains in the order shown. Actinocin(9to1) = Cc1c2oc3c(C)ccc(C(=O)[*:1])c3nc-2c(C(=O)[*:2])c(N)c1=O; NMeV = CN[C@H](C(=O)O)C(C)C; Sar = CNCC(=O)O

Key:
Assay type in all cases: physicochemical
[1] = Partition coefficient (logP); details: octanol/water
[2] = log P value was reported at a pH 2.0; details: buffer
[3] = Partition coefficient (logD) (0.1 N NaOH)

Row | Compound | logP ([1]; read-out: logP) | also measured
1 | CN(Cc1cnc2nc(N)nc(N)c2n1)c1ccc(C(=O)N[C@@H](CCC(=O)O)C(=O)O)cc1 [METHOTREXATE] | – | logD [2]: -2.59
2 | CO[C@@]12[C@H](COC(N)=O)C3=C(C(=O)C(C)=C(N)C3=O)N1C[C@@H]1N[C@@H]12 [MITOMYCIN] | – | logP [1]: -0.47
3 | COc1ccc(OC)c(Cc2cnc3nc(N)nc(N)c3c2C)c1 [PIRITREXIM] | – | logD ([3]; 0.1 N NaOH, read-out: logD): 2.13
4 | COc1ccc(C[C@H](N)C(=O)N[C@H]2[C@@H](O)[C@H](n3cnc4c(N(C)C)ncnc43)O[C@@H]2CO)cc1 [PUROMYCIN] | 0.03 | –
5 | COCCOc1c(OC)cc(Cc2cnc(N)nc2N)cc1OC [TETROXOPRIM] | – | logD ([3]; octanol/water): 0.6
6 | CISPLATIN | – | logP [1]: -1.45

Continued, in another order:

Row | logP ([1]; read-out: logP) | Compound | also measured
7 | 3.21 | Cc1c2oc3c(C)ccc(C(=O)N[C@@H]4C(=O)N[C@H](C(C)C)C(=O)N5CCC[C@H]5C(=O)N(C)CC(=O)N(C)[C@@H](C(C)C)C(=O)O[C@@H]4C)c3nc-2c(C(=O)N[C@@H]2C(=O)N[C@H](C(C)C)C(=O)N3CCC[C@H]3C(=O)N(C)CC(=O)N(C)[C@@H](C(C)C)C(=O)O[C@@H]2C)c(N)c1=O [DACTINOMYCIN] (I: T[dV]P[Sar][NMeV] / II: T[dV]P[Sar][NMeV]; ester I:1-I:C, II:1-II:C; linker I:N-II:N via Actinocin(9to1)) | –
8 | 0.66 | COc1cccc2c1C(=O)c1c(O)c3c(c(O)c1C2=O)C[C@@](O)(C(C)=O)C[C@@H]3O[C@H]1C[C@H](N)[C@H](O)[C@H](C)O1 [DAUNORUBICIN] | –
9 | 0.1 | COc1cccc2c1C(=O)c1c(O)c3c(c(O)c1C2=O)C[C@@](O)(C(=O)CO)C[C@@H]3O[C@H]1C[C@H](N)[C@H](O)[C@H](C)O1 [DOXORUBICIN] | –
10 | -1.8 | NC(=O)NO [HYDROXYUREA] | –
